Reference: ChEMBL document CHEMBL3603747, “Discovery, design, and synthesis of indole-based EZH2 inhibitors” (Bioorg Med Chem Lett, 2015)

Columns and labels:
Assay type in all cases: ADME, organism-based
[1] = AUC in CB17 SCID mouse at 1 mg/kg, iv by LC-MS method; details: in vivo
[2] = Volume of distribution at steady state in CB17 SCID mouse at 1 mg/kg, iv by LC-MS method; details: in vivo, read-out: Vdss
[3] = Cmax in CB17 SCID mouse at 200 mg/kg, sc by LC-MS method; parameters: dose 200 mg/kg, route subcutaneous; details: in vivo
[4] = AUC in CB17 SCID mouse at 200 mg/kg, sc by LC-MS method; details: in vivo

CCS(=O)(=O)N1CCC([C@@H](C)n2c(C)c(C(=O)NCc3c(OC)cc(C)[nH]c3=O)c3ccccc32)CC1
AUC [1]: 362 ng·h/mL | Vd [2]: 0.795 L/kg | Cmax [3]: 9150 ng/mL | AUC [4]: 51000 ng·h/mL
